Assay results taken from patent US8071548B2, “Method of reducing injury to mammalian cells” (Nono, Inc., priority 2002, dated 2011).

Experiments:
Type in all cases: in vivo, Sprague-Dawley rats
[1] = tested on: traumatic brain injury; test: Lateral fluid percussion injury model of TBI; conditions: analyzed 24 h after injury
Protocol: Adult male Sprague-Dawley rats weighing approximately 350 g were ordered from Charles River and anesthesia was induced using a gaseous mixture of 1:2 oxygen:nitrous oxide with 2% halothane. The halothane level was reduced to 1% during surgical manipulations and weights were recorded prior to preparatory surgery. The preparatory surgery for these experiments included the cannulation of the left femoral vein and a 5 mm diameter craniotomy. The venous cannula is sealed and tucked inside the animal whereupon the wound is sutured. The center of the craniotomy lies about 2.5 mm to the right of the sagittal suture, between the bregma and lambda. A modified Leur-loc is attached to the perimeter of the craniotomy with superglue (FIG. 28).
Dental acrylic (GC America Inc, Alsip, Ill.) is applied around the modified Leur-loc to seal it into place. A small piece of gelfoam is placed into the opening and the skin is sutured over the entire setup. The animal is then returned to its cage. The following day, the animal is re-anesthetized, weighed, and its wound is re-opened. The gelfoam is removed and the animal is attached to the fluid percussion device via the modified Leur-loc. At this time, the animal is given a ˜20 ms saline injection at approximately 2.4 atmospheres (350 mV on the oscilloscope) using the fluid percussion injury device (Custom Design & Fabrication, Richmond, Va.) (FIG. 29).
On occasion, the animal ceases spontaneous breathing following the injury and 1-2 chest compressions are required for resuscitation. The modified Leur-loc along with the dental acrylic is removed en bloc immediately following the injury. The animal is placed on 100% oxygen while its wound is cleaned and resealed with Vetbond tissue adhesive (3M Worldwide, Maplewood, Minn.). The rat's body temperature during the recovery time is maintained at 37° C. with a homeothermic warming blanket (Harvard Bioscience Inc, Holliston, Mass.). The amount of time necessary for the righting reflex to return is recorded and the animal is placed back into its cage. At 3 h post-injury, the animal is re-anesthetized and weighed again. The wound overlying the femoral cannula is opened and the cannula is cleaned out using heparinized saline. […] The cannula is sealed, tucked again into the animal, and the wound is re-sutured. At 24 h post-injury, the animal is re-anesthetized and weighed again. The rat is transcardially perfused using heparinized saline to clean out the cardiovascular system, followed by a 4% formalin fixative solution. The rat is decapitated and left in the fixative solution overnight. The brain is extracted the following day and processed. The volume of damaged brain (FIG. 26, right graph) is assessed according to the same methods as described in Aarts et al., 2002, for assessing stroke volumes. […]

[2] = tested on: transient middle cerebral artery occlusion; test: Transient MCAO, pre-treatment study
Protocol: Next, I examined whether pretreatment with Tat-peptides would reduce stroke damage. Experiments were carried out in adult male Sprague-Dawley rats subjected to transient middle cerebral artery occlusion (MCAO) for 90 minutes by the intraluminal suture method (36,37). Animals were fasted overnight and injected with atropine sulfate (0.5 mg/kg IP). After 10 minutes anesthesia was induced with 3.5% halothane in a mixture of nitrous oxide and oxygen (Vol. 2:1) and maintained with 0.8% halothane. Rats were orally intubated, mechanically ventilated, and paralyzed with pancuronium bromide (0.6 mg/kg IV). Body temperature was maintained at 36.5-37.5° C. with a heating lamp. Polyethylene catheters in the femoral artery and vein were used to continuously record blood pressure and to sample blood for gas and pH measurements. […] This produces an extensive infarction encompassing the cerebral cortex and basal ganglia. […] Physiological parameters (body temperature, blood pressure, blood gases) were monitored and maintained throughout the experiment (Table 1). All experimental manipulations and analyses of data were performed by individuals blinded to the treatment groups. The extent of cerebral infarction was measured 24 h after MCAO onset (FIG. 7C inset). The postural reflex test (38), and the forelimb placing test (39) were used to grade neurological function on a scale of 0 to 12 (normal=0; worst=12) during MCAO (at 50 minutes) and 24 h thereafter.

[3] = Physiological variables in post-treatment MCAO study
Protocol: Next, I examined whether treatment with Tat-NR2B9c could attenuate ischemic neuronal damage in-vivo when given after stroke onset. […] Infarction volume and neurological outcome measurements were performed at times identical to the pre-treatment study. Body temperature, blood pressure and blood gases were monitored throughout the 24 h experiment and maintained equivalent between groups (Table 2).

In the case of Tat-KLSSIESDV [Tat-NR2B9c], the “total volume of injured brain” value ([1]; 3 hours after TBI) is reported as “significantly reduced”, the “fraction of dead cells in cerebral cortex and hippocampus ipsilateral to the injury” value ([1]; via femoral cannula 3 hours after TBI) is reported as “markedly reduced fraction of dead cells” and the “reduction in cortical infarction” value ([2]; 3 nMoles/g i.v. 45 min prior to MCAO, 24 h after MCAO onset) is reported as 70.7±11.23%. For the same substance, the “reduction of volume of total cerebral infarction” value ([2]; 3 nMoles/g i.v. 45 min prior to MCAO, 24 h after MCAO onset, vs controls) was 54.6±11.27%, the “24 h neurological scores” value ([2]; 3 nMoles/g i.v. bolus 45 min prior to MCAO) was “trend toward improvement” and the “Body Temperature” value ([3]; After MCAo (15 min)) was 36.8 ± 0.08 °C. The MABP ([3]; After MCAo (15 min)) was 119 ± 4 mmHg, the “Body Temperature” value ([3]; After MCAo (24 hr)) was 36.4 ± 0.24 °C and the Body weight ([3]; After MCAo (24 hr)) was 279 ± 8 g. For the same substance, the “Blood gases PCO2” value ([3]; Before MCAo(15 min)) was 40.1 ± 1.0 mmHg, the “Blood gases PH” value ([3]; Before MCAo(15 min)) was 7.43 ± 0.02 and the “Blood gases PO2” value ([3]; Before MCAo(15 min)) was 105 ± 4 mmHg. For the same substance, the “Body Temperature” value ([3]; Before MCAo(15 min)) was 36.6 ± 0.07 °C, the MABP ([3]; Before MCAo(15 min)) was 103 ± 5 mmHg and the Body weight ([3]; Before anesthesia) was 306 ± 7 g. The “Blood gases PCO2” value ([3]; During MCAo (15 min)) was 39.8 ± 0.9 mmHg, the “Blood gases PH” value ([3]; During MCAo (15 min)) was 7.43 ± 0.01 and the “Blood gases PO2” value ([3]; During MCAo (15 min)) was 111 ± 4 mmHg. The “Body Temperature” value ([3]; During MCAo (15 min)) was 37.0 ± 0.07 °C, the MABP ([3]; During MCAo (15 min)) was 119 ± 8 mmHg and the “Body Temperature” value ([3]; During MCAo (60 min)) was 36.7 ± 0.11 °C. For the same substance, the MABP ([3]; During MCAo (60 min)) was 143 ± 5 mmHg, the “Body Temperature” value ([3]; During MCAo (65 min)) was 36.9 ± 0.08 °C and the MABP ([3]; During MCAo (65 min)) was 137 ± 4 mmHg.
